Results: ChEMBL document CHEMBL3885861, “Open TG-GATES”

Species on record: Rattus norvegicus
Experiment: Open TG-GATES - Regimen: Single
Assay type: toxicity, organism-based, Sprague-Dawley
Set-up: regimen Single, gender Male, age 6 weeks
Conditions: in vivo, po, 100 mg/kg, route gavage, dose level Middle; for APTT / Bas / Eos / Fbg / Hb / Ht / Lym / MCH / MCHC / MCV / Mono / Neu / PT / Plat / RBC / Ret / WBC: tissue Blood; for KIDNEY_L / KIDNEY_R / KIDNEY_TOTAL: tissue Kidney; for LIVER: tissue Liver; for A/G / ALP / ALT / AST / BUN / CRE / Ca / Cl / DBIL / GLC / IP / K / LDH / Na / PL / RALB / TBIL / TC / TG / TP / gamma-GTP: tissue Plasma

Brc1ccccc1 [BROMOBENZENE]
TERMINAL_BW (3 h): 191 g | APTT (3 h): 16 s | Bas (3 h): 0% | Eos (3 h): 0.6% | Fbg (3 h): 266.6 mg/dL | Hb (3 h): 13.4 g/dL | Ht (3 h): 40.5% | Lym (3 h): 79.2% | MCH (3 h): 21.4 pg | MCHC (3 h): 33% | MCV (3 h): 64.7 fL | Mono (3 h): 3.6% | Neu (3 h): 16% | PT (3 h): 12.3 s | Plat (3 h): 111.5 x10_4/uL | RBC (3 h): 625.8 x10_4/ul | Ret (3 h): 10% | WBC (3 h): 74.4 x10_2/uL | KIDNEY_L (3 h): 0.8 g | KIDNEY_R (3 h): 0.8 g | KIDNEY_TOTAL (3 h): 1.6 g | LIVER (3 h): 7.8 g | A/G (3 h): 0.9 | ALP (3 h): 1591.2 IU/L | ALT (3 h): 51 IU/L | AST (3 h): 76.8 IU/L | BUN (3 h): 8.6 mg/dL | CRE (3 h): 0.2 mg/dL | Ca (3 h): 11 mg/dL | Cl (3 h): 105.8 meq/L | DBIL (3 h): 0.004 mg/dL | GLC (3 h): 183 mg/dL | IP (3 h): 11.1 mg/dL | K (3 h): 3.9 meq/L | LDH (3 h): 80.8 IU/L | Na (3 h): 142.8 meq/L | PL (3 h): 155.6 mg/dL | RALB (3 h): 2.7 g/dL | TBIL (3 h): 0.044 mg/dL | TC (3 h): 87.4 mg/dL | TG (3 h): 42.6 mg/dL | TP (3 h): 5.7 g/dL | gamma-GTP (3 h): 1.2 IU/L | TERMINAL_BW (6 h): 190.5 g | APTT (6 h): 15.9 s | Bas (6 h): 0% | Eos (6 h): 0.8% | Fbg (6 h): 269.2 mg/dL | Hb (6 h): 13.4 g/dL | Ht (6 h): 39.7% | Lym (6 h): 78.8% | MCH (6 h): 21.4 pg | MCHC (6 h): 33.8% | MCV (6 h): 63.3 fL | Mono (6 h): 2.4% | Neu (6 h): 17.6% | PT (6 h): 12.4 s | Plat (6 h): 107.8 x10_4/uL | RBC (6 h): 627 x10_4/ul | Ret (6 h): 8.6% | WBC (6 h): 68.9 x10_2/uL | KIDNEY_L (6 h): 0.8 g | KIDNEY_R (6 h): 0.8 g | KIDNEY_TOTAL (6 h): 1.6 g | LIVER (6 h): 6.8 g | A/G (6 h): 0.9 | ALP (6 h): 1550 IU/L | ALT (6 h): 41.8 IU/L | AST (6 h): 75.4 IU/L | BUN (6 h): 9.4 mg/dL | CRE (6 h): 0.1 mg/dL | Ca (6 h): 10.8 mg/dL | Cl (6 h): 105.4 meq/L | DBIL (6 h): 0.014 mg/dL | GLC (6 h): 179.8 mg/dL | IP (6 h): 11 mg/dL | K (6 h): 3.8 meq/L | LDH (6 h): 64.4 IU/L | Na (6 h): 141.2 meq/L | PL (6 h): 137.8 mg/dL | RALB (6 h): 2.6 g/dL | TBIL (6 h): 0.054 mg/dL | TC (6 h): 78.4 mg/dL | TG (6 h): 41.4 mg/dL | TP (6 h): 5.6 g/dL | gamma-GTP (6 h): 1.6 IU/L | TERMINAL_BW (9 h): 190 g | APTT (9 h): 15.5 s | Bas (9 h): 0% | Eos (9 h): 0.6% | Fbg (9 h): 266.4 mg/dL | Hb (9 h): 13.5 g/dL | Ht (9 h): 40.2% | Lym (9 h): 76.8% | MCH (9 h): 21.5 pg | MCHC (9 h): 33.6% | MCV (9 h): 63.9 fL | Mono (9 h): 2.2% | Neu (9 h): 19.4% | PT (9 h): 12.3 s | Plat (9 h): 115.9 x10_4/uL | RBC (9 h): 629 x10_4/ul | Ret (9 h): 9.1% | WBC (9 h): 79.5 x10_2/uL | KIDNEY_L (9 h): 0.8 g | KIDNEY_R (9 h): 0.8 g | KIDNEY_TOTAL (9 h): 1.5 g | LIVER (9 h): 6.8 g | A/G (9 h): 0.9 | ALP (9 h): 1400.4 IU/L | ALT (9 h): 39.4 IU/L | AST (9 h): 70.8 IU/L | BUN (9 h): 13 mg/dL | CRE (9 h): 0.2 mg/dL | Ca (9 h): 10.8 mg/dL | Cl (9 h): 107 meq/L | DBIL (9 h): 0.02 mg/dL | GLC (9 h): 179.2 mg/dL | IP (9 h): 10.8 mg/dL | K (9 h): 4 meq/L | LDH (9 h): 78.2 IU/L | Na (9 h): 141.8 meq/L | PL (9 h): 147.8 mg/dL | RALB (9 h): 2.6 g/dL | TBIL (9 h): 0.064 mg/dL | TC (9 h): 88 mg/dL | TG (9 h): 29.4 mg/dL | TP (9 h): 5.5 g/dL | gamma-GTP (9 h): 1.4 IU/L | TERMINAL_BW (24 h): 193.2 g | APTT (24 h): 15.4 s | Bas (24 h): 0% | Eos (24 h): 0.8% | Fbg (24 h): 224.4 mg/dL | Hb (24 h): 12.9 g/dL | Ht (24 h): 38% | Lym (24 h): 79.6% | MCH (24 h): 21.5 pg | MCHC (24 h): 33.9% | MCV (24 h): 63.3 fL | Mono (24 h): 2.8% | Neu (24 h): 16.4% | PT (24 h): 12.9 s | Plat (24 h): 112.9 x10_4/uL | RBC (24 h): 600.8 x10_4/ul | Ret (24 h): 8.5% | WBC (24 h): 84.8 x10_2/uL | KIDNEY_L (24 h): 0.9 g | KIDNEY_R (24 h): 0.9 g | KIDNEY_TOTAL (24 h): 1.7 g | LIVER (24 h): 8.9 g | A/G (24 h): 0.9 | ALP (24 h): 1694.4 IU/L | ALT (24 h): 52.2 IU/L | AST (24 h): 79 IU/L | BUN (24 h): 12 mg/dL | CRE (24 h): 0.2 mg/dL | Ca (24 h): 10.4 mg/dL | Cl (24 h): 106 meq/L | DBIL (24 h): 0.018 mg/dL | GLC (24 h): 186 mg/dL | IP (24 h): 8.1 mg/dL | K (24 h): 4 meq/L | LDH (24 h): 103.2 IU/L | Na (24 h): 142.6 meq/L | PL (24 h): 146.8 mg/dL | RALB (24 h): 2.5 g/dL | TBIL (24 h): 0.062 mg/dL | TC (24 h): 76.8 mg/dL | TG (24 h): 100 mg/dL | TP (24 h): 5.4 g/dL | gamma-GTP (24 h): 1.4 IU/L
